Biological target: PD-1/PD-L1 (Homo sapiens (Human), UniProt Q9NZQ7)
Experiment: PD-1/PD-L1 Homogenous Time-Resolved Fluorescence (HTRF) binding assay
Conditions: PD-1-Ig (20 nM final)/PD-L1-His (10 nM final) binding assay
From the text: The ability of the compounds of the invention to bind to PD-L1 was investigated using a PD-1/PD-L1 Homogenous Time-Resolved Fluorescence (HTRF) binding assay.
The interaction of PD-1 and PD-L1 can be assessed using soluble, purified preparations of the extracellular domains of the two proteins. The PD-1 and PD-L1 protein extracellular domains were expressed as fusion proteins with detection tags, for PD-1, the tag was the Fc portion of Immunoglobulin (PD-1-Ig) and for PD-L1 it was the 6 histidine motif (PD-L1-His). All binding studies were performed in an HTRF assay buffer consisting of dPBS supplemented with 0.1% […] bovine serum albumin and 0.05% (v/v) Tween-20. For the h/PD-L1-His binding assay, inhibitors were pre-incubated with PD-L1-His (10 nM final) for 15m in 4 μl of assay buffer, followed by addition of PD-1-Ig (20 nM final) in 1 μl of assay buffer and further incubation for 15 m. HTRF detection was achieved using europium crypate-labeled anti-Ig (1 nM final) and allophycocyanin (APC) labeled anti-His (20 nM final). Antibodies were diluted in HTRF detection buffer and 5 μl was dispensed on top of the binding reaction. The reaction mixture was allowed to equilibrate for 30 minutes and the resulting signal (665 nm/620 nm ratio) was obtained using an EnVision fluorometer. Additional binding assays were established between the human proteins PD-1-Ig/PD-L2-His (20 & 5 nM, respectively) and CD80-His/PD-L1-Ig (100 & 10 nM, respectively).
Recombinant Proteins: Human PD-1 (25-167) with a C-terminal human Fc domain of immunoglobulin G (Ig) epitope tag [hPD-1 (25-167)-3S-IG] and human PD-L1 (18-239) with a C-terminal His epitope tag [hPD-L1(18-239)-TVMV-His] were expressed in HEK293T cells and purified sequentially by ProteinA affinity chromatography and size exclusion chromatography. Human PD-L2-His and CD80-His was obtained through commercial sources.
Homogenous Time-Resolved Fluorescence (HTRF) Assays of Binding of Soluble PD-1 to Soluble PD-L1. Soluble PD-1 and soluble PD-L1 refers to proteins with carboxyl-end truncations that remove the transmembrane-spanning regions and are fused to heterologous sequences, specifically the Fc portion of the human immunoglobuling G sequence (Ig) or the hexahistidine epitope tag (His). All binding studies were performed in an HTRF assay buffer consisting of dPBS supplemented with 0.1% (w/v) bovine serum albumin and 0.05% (v/v) Tween-20. For the PD-1-Ig/PD-L1-His binding assay, inhibitors were pre-incubated with PD-L1-His (10 nM final) for 15m in 4 μl of assay buffer, followed by addition of PD-1-Ig (20 nM final) in 1 μl of assay buffer and further incubation for 15 m. PD-L1 fusion proteins from either human, cynomologous macaques, mouse, or other species were used. HTRF detection was achieved using europium crypate-labeled anti-Ig monoclonal antibody (1 nM final) and allophycocyanin (APC) labeled anti-His monoclonal antibody (20 nM final). Antibodies were diluted in HTRF detection buffer and 5 μl was dispensed on top of binding reaction. The reaction was allowed to equilibrate for 30 minutes and signal (665 nm/620 nm ratio) was obtained using an EnVision fluorometer. Additional binding assays were established between PD-1-Ig/PD-L2-His (20 and 5 nM, respectively), CD80-His/PD-L1-Ig (100 and 10 nM, respectively) and CD80-His/CTLA4-Ig (10 and 5 nM, respectively).
Recombinant Proteins. Carboxyl-truncated human PD-1 (amino acids 25-167) with a C-terminal human Ig epitope tag [hPD-1 (25-167)-3S-IG] and human PD-L1 (amino acids 18-239) with a C-terminal His epitope tag [hPD-L1(19-239)-tobacco vein mottling virus protease cleavage site (TVMV)-His] were expressed in HEK293T cells and purified sequentially by recombinant Protein A affinity chromatography and size exclusion chromatography. Human PD-L2-His (Sino Biologicals), CD80-His (Sino Biologicals), CTLA4-Ig (RnD Systems) were all obtained through commercial sources.

Chain of PD-1/PD-L1 (Q9NZQ7 18-239): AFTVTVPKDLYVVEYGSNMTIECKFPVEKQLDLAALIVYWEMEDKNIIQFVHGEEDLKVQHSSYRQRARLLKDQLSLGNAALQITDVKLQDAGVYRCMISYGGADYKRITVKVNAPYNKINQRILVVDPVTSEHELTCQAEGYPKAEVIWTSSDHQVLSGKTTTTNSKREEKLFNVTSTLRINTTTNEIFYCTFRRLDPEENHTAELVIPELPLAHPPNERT

SMILES	IC50
Cc1c(COc2cc(OCC3CCCN(C)C3)c(CN[C@@H](CO)C(=O)O)cc2Cl)cccc1-c1ccc2c(c1)OCCO2 (single isomer, unassigned) [Example 2005]	1.9 nM
Cc1c(COc2cc(OCC3CCCN(C)C3)c(CN[C@@H](CO)C(=O)O)cc2Cl)cccc1-c1ccc2c(c1)OCCO2 (single isomer, unassigned) [Example 2006]	2.8 nM
Cc1cnc(COc2cc(OCc3cccc(-c4ccc5c(c4)OCCO5)c3C)c(Cl)cc2CN[C@H](CO)C(=O)O)cn1 [Example 1001, (R)-2-((5-Chloro-4-((3-(2,3-dihydrobenzo[b][1,4]dioxin-6-yl)-2-methylbenzyl)oxy)-2-((5-methylpyrazin-2-yl)methoxy)benzyl)amino)-3-hydroxypropanoic acid]	4.5 nM
Cc1c(COc2cc(OCc3ccnc(NC(=O)N4CCOCC4)c3)c(CN[C@@](C)(CO)C(=O)O)cc2Cl)cccc1-c1ccc2c(c1)OCCO2 [Example 1004, (S)-2-((5-Chloro-4-((3-(2,3-dihydrobenzo[b][1,4]dioxin-6-yl)-2-methylbenzyl)oxy)-2-((2-(morpholine-4-carboxamido)pyridin-4-yl)methoxy)benzyl)amino)-3-hydroxy-2-methylpropanoic acid]	17.3 nM
CCn1cc(COc2cc(OCc3cccc(-c4ccc5c(c4)OCCO5)c3C)c(Cl)cc2CN[C@H](CO)C(=O)O)cn1 [Example 1005, (R)-2-((5-Chloro-4-((3-(2,3-dihydrobenzo[b][1,4]dioxin-6-yl)-2-methylbenzyl)oxy)-2-((1-ethyl-1H-pyrazol-4-yl)methoxy)benzyl)amino)-3-hydroxypropanoic acid]	7.9 nM
COC(=O)CCSc1cncc(COc2cc(OCc3cccc(-c4ccc5c(c4)OCCO5)c3C)c(Cl)cc2CN2CCCC[C@H]2C(=O)O)c1 [Example 1007, (S)-1-(5-Chloro-4-((3-(2,3-dihydrobenzo[b][1,4]dioxin-6-yl)-2-methylbenzyl)oxy)-2-((5-((3-methoxy-3-oxopropyl)thio)pyridin-3-yl)methoxy)benzyl)piperidine-2-carboxylic acid]	27.6 nM
Cc1c(COc2cc(OCc3cnn(CC#N)c3)c(CN[C@@](C)(CO)C(=O)O)cc2Cl)cccc1-c1ccc2c(c1)OCCO2 [Example 1008, (S)-2-((5-chloro-2-((1-(cyanomethyl)-1H-pyrazol-4-yl)methoxy)-4-((3-(2,3-dihydrobenzo[b][1,4]dioxin-6-yl)-2-methylbenzyl)oxy)benzyl)amino)-3-hydroxy-2-methylpropanoic acid]	1.7 nM
Cc1c(COc2cc(OCc3cnn(CC(=O)OC(C)(C)C)c3)c(CN[C@@](C)(CO)C(=O)O)cc2Cl)cccc1-c1ccc2c(c1)OCCO2 [Example 1009, (S)-2-((2-((1-(2-(tert-Butoxy)-2-oxoethyl)-1H-pyrazol-4-yl)methoxy)-5-chloro-4-((3-(2,3-dihydrobenzo[b][1,4]dioxin-6-yl)-2-methylbenzyl)oxy)benzyl)amino)-3-hydroxy-2-methylpropanoic acid]	43.7 nM
Cc1c(COc2cc(OCc3cncc(SCc4ccccc4)c3)c(CN3CCCC[C@H]3C(=O)O)cc2Cl)cccc1-c1ccc2c(c1)OCCO2 [Example 1010, (S)-1-(2-((5-(Benzylthio)pyridin-3-yl)methoxy)-5-chloro-4-((3-(2,3-dihydrobenzo [b][1,4]dioxin-6-yl)-2-methylbenzyl)oxy)benzyl)piperidine-2-carboxylic acid]	43.4 nM
Cc1c(COc2cc(OCc3cncc(S(=O)(=O)CCC(=O)O)c3)c(CN3CCCC[C@H]3C(=O)O)cc2Cl)cccc1-c1ccc2c(c1)OCCO2 [Example 1012, (S)-1-(2-((5-((2-Carboxyethyl)sulfonyl)pyridin-3-yl)methoxy)-5-chloro-4-((3-(2,3-dihydrobenzo[b]1[1,4]dioxin-6-yl)-2-methylbenzyl)oxy)benzyl)piperidine-2-carboxylic acid]	3 nM

Other lines, results leading:

IC50	SMILES
6.8 nM	Cc1cnc(COc2cc(OCc3cccc(-c4ccc5c(c4)OCCO5)c3C)c(Cl)cc2CN[C@@](C)(CO)C(=O)O)cn1 [Example 1002, (S)-2-((5-Chloro-4-((3-(2,3-dihydrobenzo[b][1,4]dioxin-6-yl)-2-methylbenzyl)oxy)-2-((5-methylpyrazin-2-yl)methoxy)benzyl)amino)-3-hydroxy-2-methylpropanoic acid]
5.8 nM	CCn1cc(COc2cc(OCc3cccc(-c4ccc5c(c4)OCCO5)c3C)c(Cl)cc2CN[C@@](C)(CO)C(=O)O)cn1 [Example 1003, (S)-2-((5-Chloro-4-((3-(2,3-dihydrobenzo[b][1,4]dioxin-6-yl)-2-methylbenzyl)oxy)-2-((1-ethyl-1H-pyrazol-4-yl)methoxy)benzyl)amino)-3-hydroxy-2-methylpropanoic acid]
1.1 nM	COC(=O)CCSc1cncc(COc2cc(OCc3cccc(-c4ccc5c(c4)OCCO5)c3C)c(Cl)cc2CN[C@@](C)(CO)C(=O)O)c1 [Example 1006, (S)-2-((5-Chloro-4-((3-(2,3-dihydrobenzo[b][1,4]dioxin-6-yl)-2-methylbenzyl)oxy)-2-((5-((3-methoxy-3-oxopropyl)thio)pyridin-3-yl)methoxy)benzyl)amino)-3-hydroxy-2-methylpropanoic acid]
11 nM	Cc1c(COc2cc(OCc3cnn(-c4ccccn4)c3)c(CN[C@@](C)(CO)C(=O)O)cc2Cl)cccc1-c1ccc2c(c1)OCCO2 [Example 1011, (S)-2-((5-Chloro-4-((3-(2,3-dihydrobenzo[b][1,4]dioxin-6-yl)-2-methylbenzyl)oxy)-2-((1-(pyridin-2-yl)-1H-pyrazol-4-yl)methoxy)benzyl)amino)-3-hydroxy-2-methylpropanoic acid]
72 nM	Cc1c(COc2cc(OCc3cccc(-c4nc(CC(=O)O)cs4)c3)c(CN[C@@](C)(CO)C(=O)O)cc2Cl)cccc1-c1ccc2c(c1)OCCO2 [Example 1013, (S)-2-((2-((3-(4-(Carboxymethyl)thiazol-2-yl)benzyl)oxy)-5-chloro-4-((3-(2,3-dihydrobenzo[b][1,4]dioxin-6-yl)-2-methylbenzyl)oxy)benzyl)amino)-3-hydroxy-2-methylpropanoic acid]
6.6 nM	Cc1c(COc2cc(OCc3cncc(SCCC(=O)O)c3)c(CN[C@@](C)(CO)C(=O)O)cc2Cl)cccc1-c1ccc2c(c1)OCCO2 [Example 1014, (S)-2-((2-((5-((2-Carboxyethyl)thio)pyridin-3-yl)methoxy)-5-chloro-4-((3-(2,3-dihydrobenzo[b][1,4]dioxin-6-yl)-2-methylbenzyl)oxy)benzyl)amino)-3-hydroxy-2-methylpropanoic acid]
68.4 nM	Cc1c(COc2cc(OCc3cccc(-c4nc(CC(=O)O)co4)c3)c(CN[C@@](C)(CO)C(=O)O)cc2Cl)cccc1-c1ccc2c(c1)OCCO2 [Example 1015, (S)-2-((2-((3-(4-(Carboxymethyl)oxazol-2-yl)benzyl)oxy)-5-chloro-4-((3-(2,3-dihydrobenzo[b][1,4]dioxin-6-yl)-2-methylbenzyl)oxy)benzyl)amino)-3-hydroxy-2-methylpropanoic acid]
5.4 nM	Cc1c(COc2cc(OCc3cnn(CC(=O)O)c3)c(CN[C@@](C)(CO)C(=O)O)cc2Cl)cccc1-c1ccc2c(c1)OCCO2 [Example 1016, (S)-2-((2-((1-(Carboxymethyl)-1H-pyrazol-4-yl)methoxy)-5-chloro-4-((3-(2,3-dihydrobenzo[b][1,4]dioxin-6-yl)-2-methylbenzyl)oxy)benzyl)amino)-3-hydroxy-2-methylpropanoic acid]

Source: patent US20250230153A1, “2,3-DIHYDROBENZO[B][1,4]DIOXIN-6-YL CONTAINING COMPOUNDS USEFUL AS IMMUNOMODULATORS” (BRISTOL-MYERS SQUIBB COMPANY, priority 2021, published 2025)
